From patent US20230031406A1, “COMPOUNDS AND COMPOSITIONS FOR TREATING CONDITIONS ASSOCIATED WITH NLRP ACTIVITY” (Novartis AG, priority 2018, published 2023)
Like-named read-outs stand apart in the source and are kept apart here. Blank lines part the entries; values can stand above or below the compound they belong to.

Test system: PMA-differentiated THP-1 cells
Assay: IL-1β production in PMA-differentiated THP-1 cells stimulated with gramicidin (hTHP-1 assay containing 2% fetal bovine serum; Procedures 1 and 2)
Assay type: cell-based, human
Conditions: 2% fetal bovine serum
Method in brief: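 PMA-primed (20 ng/ml, 16-18 h) THP-1 cells in RPMI with 2% FBS, 50,000 cells/well, were preincubated 1 h with compound (0.0017-100 μM final, 0.37% DMSO), then stimulated 2 h with 5 μM gramicidin. Supernatant IL-1β measured by HTRF.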

[1] = Table B1, class symbols, read-out: Average IC50 of compounds in hTHP-1 assay: hTHP-1 IC50
[2] = Table B2, class symbols, read-out: hTHP-1 IC50
[3] = Homo sapiens, THP-1, Table B3, hTHP-1 assay, class symbols, read-out: IC50
[4] = Homo sapiens, THP-1, Table B2, numeric bounds, read-out: hTHP-1 IC50
[5] = Homo sapiens, THP-1, Table B2, class symbols, read-out: hTHP-1 IC50
[6] = Table B3, hTHP-1 assay, class symbols, read-out: IC50
[7] = Homo sapiens, THP-1, Table B1, class symbols, read-out: Average IC50 of compounds in hTHP-1 assay: hTHP-1 IC50

Structure (SMILES): Cc1c(C(F)(F)F)nc(C(F)(F)F)c(C)c1NC(=O)N=S(N)(=O)c1cc(C(C)(C)O)cs1 (single isomer, unassigned) [Example 755, (R) or (S)-N′-((3,5-dimethyl-2,6-bis(trifluoromethyl)pyridin-4-yl)carbamoyl)-4-(2-hydroxypropan-2-yl)thiophene-2-sulfonimidamide]
IC50 (Table B4, class symbols, read-out: hTHP-1 IC50): 0.2 to 1 µM

Structure (SMILES): Cc1nc2c(c(NC(=O)N=S(N)(=O)c3cc(C(C)(C)O)cs3)c1C(F)(F)F)CCC2 (centres unmarked) [Example 566, 4-(2-Hydroxypropan-2-yl)-N′-((2-methyl-3-(trifluoromethyl)-6,7-dihydro-5H-cyclopenta[b]pyridin-4-yl)carbamoyl)thiophene-2-sulfonimidamide]
IC50 [3]: 0.2 to 1 µM

Structure (SMILES): Cc1c(C2(F)CC2)nc2c(c1NC(=O)N=S(N)(=O)c1sc(C(C)(C)O)cc1F)CCC2 (centres unmarked) [Compound 733]
IC50 [5]: 1 to 5 µM

Structure (SMILES): Cc1c(C(F)(F)F)nc2c(c1NC(=O)N=S(N)(=O)c1cnc(C(C)(C)O)s1)CCC2C (single isomer, unassigned) [Example 704, (R/S, R) or (R/S, S)-N′-((3,7-dimethyl-2-(trifluoromethyl)-6,7-dihydro-5H-cyclopenta[b]pyridin-4-yl)carbamoyl)-2-(2-hydroxypropan-2-yl)thiazole-5-sulfonimidamide]
IC50 [6]: 0.2 to 1 µM

Structure (SMILES): CC(C)(O)c1ncc(S(N)(=O)=NC(=O)Nc2c3c(nc4c2CCC4=O)CCC3)s1 (centres unmarked) [Compound 711]
IC50 [4]: > 30 µM

Structure (SMILES): CC(C)(O)c1cc(F)c(S(N)(=O)=NC(=O)Nc2c3c(nc(C4CC4)c2C2CC2)CCC3)s1 (centres unmarked) [Example 570, N′-((2,3-dicyclopropyl-6,7-dihydro-5H-cyclopenta[b]pyridin-4-yl)calbamoyl)-3-fluoro-5-(2-hydroxypropan-2-yl)thiophene-2-sulfonimidamide]
IC50 [3]: 0.2 to 1 µM

Structure (SMILES): CC(C)(O)c1cnc(S(N)(=O)=NC(=O)Nc2c3c(nc4c2CCC4O)CCC3)s1 (centres unmarked) [Example 635, N′-((3-hydroxy-1,2,3,5,6,7-hexahydrodicyclopenta[b,e]pyridin-8-yl)carbamoyl)-5-(2-hydroxypropan-2-yl)thiazole-2-sulfonimidamide]
IC50 (Homo sapiens, THP-1, Table B3, hTHP-1 assay, numeric values, read-out: IC50): > 30 µM

Structure (SMILES): CC1(C)CCc2c1nc1c(c2NC(=O)N=S(N)(=O)c2cc(CO)n(CCO)n2)CCC1 (centres unmarked) [Example 626, N′-((3,3-dimethyl-1,2,3,5,6,7-hexahydrodicyclopenta[b,e]pyridin-8-yl)carbamoyl)-1-(2-hydroxyethyl)-5-(hydroxymethyl)-1H-pyrazole-3-sulfonimidamide]
IC50 [3]: 0.2 to 1 µM

Structure (SMILES): Cc1c(C(F)(F)F)nc2c(c1NC(=O)N=S(N)(=O)c1cc(C(C)(C)O)cs1)CCC2 (centres unmarked) [Compound 624, 4-(2-Hydroxypropan-2-yl)-N′-((3-methyl-2-(trifluoromethyl)-6,7-dihydro-5H-cyclopenta[b]pyridin-4-yl)carbamoyl)thiophene-2-sulfonimidamide]
IC50 [5]: 0.04 to 0.2 µM

Structure (SMILES): CO[C@H]1COc2c(S(N)(=O)=NC(=O)Nc3c(C)c(C(F)(F)F)nc4c3CCC4)cnn2C1 (stereo partly drawn) [Example 564, (6R)-6-methoxy-N′-((3-methyl-2-(trifluoromethyl)-6,7-dihydro-5H-cyclopenta[b]pyridin-4-yl)carbamoyl)-6,7-dihydro-5H-pymzolo[5,1-b][1,3]oxazine-3-sulfonimidamide]
IC50 [3]: 1 to 5 µM

Structure (SMILES): CC(C)n1ccc(S(N)(=O)=NC(=O)Nc2c3c(nc4c2CCC4(C)C)CCC3)n1 (centres unmarked) [Compound 126, N′-((3,3-dimethyl-1,2,3,5,6,7-hexahydrodicyclopenta[b,e]pyridin-8-yl)carbamoyl)-1-isopropyl-1H-pyrazole-3-sulfonimidamide]
IC50 [7]: 0.04 to 0.2 µM

Structure (SMILES): CC(C)(O)c1ncc(S(N)(=O)=NC(=O)Nc2c3c(nc4c2CCC4)CCCC3)s1 (centres unmarked) [Compound 161, N′-((2,3,5,6,7,8-hexahydro-1H-cyclopenta[b]quinolin-9-yl)carbamoyl)-2-(2-hydroxypropan-2-yl)thiazole-5-sulfonimidamide]
IC50 [7]: 1 to 5 µM

Structure (SMILES): CC1(C)CCc2c1nc1c(c2NC(=O)N=[S@@](N)(=O)c2cc([C@@](C)(O)CO)cs2)CCC1 [Example 653, (R)-4-((R)-1,2-dihydroxypropan-2-yl)-N′-((3,3-dimethyl-1,2,3,5,6,7-hexahydrodicyclopenta[b,e]pyridin-8-yl)carbamoyl) thiophene-2-sulfonimidamide]
IC50 [3]: 0.04 to 0.2 µM

Structure (SMILES): CC(C)(O)c1nc(CO)c(S(N)(=O)=NC(=O)Nc2c3c(nc4c2CCC4(C)C)CCC3)s1 (centres unmarked) [Compound 121, N′-((3,3-dimethyl-1,2,3,5,6,7-hexahydrodicyclopenta[b,e]pyridin-8-yl)carbamoyl)-4-(hydroxymethyl)-2-(2-hydroxypropan-2-yl)thiazole-5-sulfonimidamide]
IC50 [7]: 0.2 to 1 µM

Structure (SMILES): CC(C)(O)c1cc(F)c(S(N)(=O)=NC(=O)Nc2c3c(nc(C(F)(F)F)c2C2CC2)CCC3)s1 (single isomer, unassigned) [Example 659, (R) or (S)-N′-((3-cyclopropyl-2-(trifluoromethyl)-6,7-dihydro-5H-cyclopenta[b]pyridin-4-yl)carbamoyl)-3-fluoro-5-(2-hydroxypropan-2-yl) thiophene-2-sulfonimidamide]
IC50 [6]: 0.2 to 1 µM

Second part, the compound after the results:

IC50 [1]: 0.04 to 0.2 µM
Structure (SMILES): CC(C)(O)c1csc(S(N)(=O)=NC(=O)Nc2c3c(nc4c2CCC4)CCC3)c1 (single isomer, unassigned) [Compound 155a, (R) or (S)-N′-((1,2,3,5,6,7-hexahydrodicyclo-penta[b,e]pyridin-8-yl)carbamoyl)-4-(2-hydroxypropan-2-yl)thiophene-2-sulfonimidamide]

IC50 [2]: 0.04 to 0.2 µM
Structure (SMILES): CC(C)(O)c1cncc(S(N)(=O)=NC(=O)Nc2c3c(nc4c2CCC4(C)C)CCC3)c1 (single isomer, unassigned) [Compound 684a, (R) or (S)-N′-((3,3-dimethyl-1,2,3,5,6,7-hexahydrodicyclopenta [b,e]pyridin-8-yl)carbamoyl)-5-(2-hydroxypropan-2-yl)pyridine-3-sulfonimidamide]

IC50 [4]: > 30 µM
Structure (SMILES): CCC1CCc2c1nc1c(c2NC(=O)N=S(N)(=O)c2ccn(C(F)F)n2)CCC1 (single isomer, unassigned) [Compound 668a, (S, S) or (S, R) or (R, S) or (R, R)-1-(Difluoromethyl)-N′-((3-ethyl-1,2,3,5,6,7-hexahydrodicyclopenta [b,e]pyridin-8-yl)carbamoyl)-1H-pyrazole-3-sulfonimidamide]

IC50 [2]: 1 to 5 µM
Structure (SMILES): Cc1c(C(F)(F)F)nc2c(c1NC(=O)N=S(N)(=O)c1ccn(C(F)F)n1)CCC2 (single isomer, unassigned) [Compound 621b, (R) or (S)-1-(Difluoromethyl)-N′-((3-methyl-2-(trifluoromethyl)-6,7-dihydro-5H-cyclopenta[b]pyridin-4-yl)carbamoyl)-1H-pyrazole-3-sulfonimidamide]

IC50 [1]: 0.2 to 1 µM
Structure (SMILES): CC1CCc2c1nc1c(c2NC(=O)N=S(N)(=O)c2sc(C(C)(C)O)cc2F)CCC1 (single isomer, unassigned) [Compound 103bb, (R,S) or (R,R)-3-fluoro-5-(2-hydroxypropan-2-yl)-N′-((3-methyl-1,2,3,5,6,7-hexahydrodicyclo-penta[b,e]pyridin-8-yl)carbamoyl)thiophene-2-sulfonimidamide]

IC50 [2]: 5 to 30 µM
Structure (SMILES): CCC1CCc2c1nc1c(c2NC(=O)N=S(N)(=O)c2cnc(C(C)(C)O)s2)CCC1 (single isomer, unassigned) [Compound 662d, (R, R) or (R, S) or (S, R) or (S, S)-N′-((3-Ethyl-1,2,3,5,6,7-hexaliydrodicyclopenta [b,e]pyridin-8-yl)caibamoyl)-2-(2-hydroxypropan-2-yl)thiazole-5-sulfonimidamide]

IC50 [1]: 5 to 30 µM
Structure (SMILES): CC1CCc2c1nc1c(c2NC(=O)N=S(N)(=O)c2sc(C(C)(C)O)cc2F)CCC1 (single isomer, unassigned) [Compound 103ab, (S,S) or (S,R)-3-fluoro-5-(2-hydroxypropan-2-yl)-N′-((3-methyl-1,2,3,5,6,7-hexahydrodicyclo-penta[b,e]pyridin-8-yl)carbamoyl)thiophene-2-sulfonimidamide]

IC50 [7]: 0.2 to 1 µM
Structure (SMILES): NS(=O)(=NC(=O)Nc1c2c(nc3c1CCC31CC1)CCC2)c1ccn(C(F)F)n1 (single isomer, unassigned) [Compound 180a, (R) or (S)-1-(difluoromethyl)-N′-((1′,5′,6′,7′-tetrahydro-2′H-spiro[cyclopropane-1,3′-dicyclopenta[b,e]pyridin]-8′-yl)carbamoyl)-1H-pyrazole-3-sulfonimidamide]

IC50 (Homo sapiens, THP-1, Table B1, numeric bounds, read-out: Average IC50 of compounds in hTHP-1 assay: hTHP-1 IC50): > 30 µM
Structure (SMILES): CC(C)(O)c1ccc(S(N)(=O)=NC(=O)Nc2c3c(nc4c2CCC4)CCC3)s1 (single isomer, unassigned) [Compound 149b, (S) or (R)-N′-((1,2,3,5,6,7-hexahydrodicyclo-penta[b,e]pyridin-8-yl)carbamoyl)-5-(2-hydroxypropan-2-yl)thiophene-2-sulfonimidamide]

IC50 [2]: 0.2 to 1 µM
Structure (SMILES): CC(C)c1c(C2CC2)nc2c(c1NC(=O)N=S(N)(=O)c1cc(C(C)(C)O)cs1)CCC2 (single isomer, unassigned) [Compound 667b, (R) or (S)-N′-((2-cyclopropyl-3-isopropyl-6,7-dihydro-5H-cyclopenta[b]pyridin-4-yl)carbamoyl)-4-(2-hydroxypropan-2-yl)thiophene-2-sulfonimidamide]

IC50 [5]: 5 to 30 µM
Structure (SMILES): N[S@](=O)(=NC(=O)Nc1c2c(nc(C3CC3)c1C1CC1)CCC2)c1ccn(C(F)F)n1 [Compound 728a]
